In patent US20130245038A1, “Method For Selecting Or Identifying A Subject For V1B Antagonist Therapy” (ABBVIE DEUTSCHLAND GMBH & CO. KG, priority 2012, published 2013):

Tests used:
Assay type in all cases: in vivo, human
subjects with MDD [1] = experiment: Randomized, placebo-controlled, double-blind clinical study in subjects with MDD: MASQ and HAM-D symptom scores
Description: High AVP was defined as ≧8.6 pg/mL, in a sample drawn at approximately 8 am or 2 pm on the day prior to initiation of study drug administration. Least squares means and standard errors are shown from analyses of covariance that included Day −1 (baseline) score as a covariate and factors for investigator, treatment, AVP class and treatment * AVP class interaction.
(§1) A randomized, placebo-controlled, double-blind clinical study of the safety and pharmacodynamics of Compound A in subjects with MDD was conducted. Fifty-one subjects with a M.I.N.I.-confirmed primary diagnosis of MDD and a clinical global impression of severity of 3 or 4 were randomized to 800 mg Compound A QD (n=31) or matching placebo (n=20) for 7 days. Subjects were confined at clinical sites from two days prior to initial study drug administration until 24 hours after the last dose of study drug. HPA axis function was thoroughly assessed prior to study drug administration and on the 6th and 7th dosing days. A panel of genetic variants related to HPA axis function was assayed. One stated aim of this study was to define a means to identify MDD subjects more likely to respond to Compound A, prior to Compound A administration.
AVP was the only parameter initially analyzed as a potential predictor of Compound A response as the daytime plasma level prior to study drug administration, measured at any of three times of day (approximately 8 am, 2 pm, and 10 pm), was the most prominent difference of baseline HPA axis function between MDD subjects in this study and HNV subjects of other studies.
Receiver operator characteristic (ROC) analysis was used. In a first ROC, the dependent variable was treatment and the independent variables were the MASQ subscales. This ROC aimed to define MASQ scale score changes that were characteristic of subjects who received Compound A and not characteristic of those who received placebo. Such score changes can be thought to distinguish Compound A responders from Compound A non-responders. Of the five MASQ subscales, General Distress Mixed (GDM) and Depressive (GDD) subscales differentiated Compound A from placebo subjects. […] Similar results were obtained when the dependent variables were analyzed as percent, rather than absolute, change from baseline.
The interaction of AVP (high v normal) and treatment (Compound A v placebo) is shown below. The dependent variables were the MASQ scale scores and the Hamilton Depression Rating Scale (HAM-D)—version score on Day 7. The corresponding scale score on Day −2 was a covariate in each model. Each model included factors for investigator, AVP, treatment and the interaction of AVP and treatment. […] MASQ total scores were normalized to a 1 to 5 scale.

[2] = system: physiological response to a stressor (CRH challenge); experiment: Cortisol reactivity to a CRH challenge in MDD subjects of the clinical study; details: maximum post-CRH serum cortisol divided by pre-CRH serum cortisol, Day 7
Description: as §1, with “High AVP was defined as ≧8.6 pg/mL, in a sample drawn at approximately 8 am or 2 pm on the day prior to initiation of study drug administration. The analysis of covariance model for Day 7 cortisol reactivity included Day −1 (baseline) cortisol reactivity as a covariate and factors for investigator, treatment, AVP class and treatment * AVP class interaction. A randomized,” for “A randomized,”, “A administration. […]” for “A administration.”

HPA axis activity [3] = experiment: HPA axis function measures (plasma ACTH, serum, saliva and urine cortisol, urine glucocorticoids) in MDD subjects of the clinical study; details: for Reduction of urine glucocorticoids compared to placebo: Day 6 to 7
Description: Higher urine glucocortioids was defined as ≧3.44 mg per mg creatinine, in a 24-hour collection on the day prior to initiation of study drug administration. The analysis of covariance model for Day 6 to 7 urine glucocorticoids included Day −2 to −1 (baseline) urine glucocorticoids as a covariate and factors for investigator, treatment and treatment * baseline urine glucocorticoids interaction.
as §1
In a ROC analysis, the dependent variable was responder status based on a cutoff on GDM of −0.53. The independent variable was baseline amount of urine glucocorticoids (the sum of cortisol, cortisone, alpha-tetrahydrocortisol, beta-tetrahydrocortisol and tetrahydrocortisone) collected during a 24-hour interval, divided by the amount of creatinine in the same urine collection. The optimal cutoff was 3.44 mg glucocorticoids per mg creatinine. This provided a sensitivity of 58% (14/24 Compound A responders included) and specificity of 67% (4 of 6 Compound A non-responders excluded). One Compound A subject was not included in this analysis due to missing urine glucocorticoid data.

HPA axis activity [4] = experiment: Urine glucocorticoids in healthy adults who received Compound A or placebo
Description: Higher urine glucocorticoids subjects are those in whom Compound A effects larger decreases of tonic HPA axis activity, and thus an appropriate population for treatment of MDD using a V1B antagonist.

subjects with MDD [5] = experiment: Randomized, placebo-controlled, double-blind clinical study in subjects with MDD: MASQ and HAM-D symptom scores; remark: listed apart in the source
[6] = Compound A 800 mg QD for 7 days v placebo, MDD subjects
[7] = ROC, dependent variable treatment (Compound A 800 mg QD, n=31, v placebo, n=20), MASQ GDM score change, cutoff X −0.53
[8] = high AVP ≧8.6 pg/mL, Compound A 800 mg QD v placebo
[9] = ROC, dependent variable treatment (Compound A 800 mg QD, n=31, v placebo, n=20), MASQ GDD score change, cutoff X −0.58

SMILES: CCOc1ncccc1[C@]1(NC(=O)N2CCN(C3CCN(C)CC3)CC2)C(=O)N(S(=O)(=O)c2ccc(OC)cc2OC)c2ccc(C#N)cc21 [Compound A]
- ANCOVA factor for treatment on MASQ GDM and GDD subscales (subjects with MDD [1]; [6]): statistically significant factors for treatment
- False Negative (subjects with MDD [1]; [7]): 7
- True Positive (subjects with MDD [1]; [7]): 24
- Interaction of AVP (high v normal) and treatment, MASQ GDD score on Day 7 (subjects with MDD [1]; [8]): statistically significant
- Interaction of AVP (high v normal) and treatment, MASQ GDM, AD and 7-item HAM-D scores on Day 7 (subjects with MDD [1]; [8]): numerically favorable trends
- Physiological response to a stressor (CRH challenge) compared to placebo ([2]; high AVP MDD subjects): lower physiological response to a stressor
- Physiological response to a stressor (CRH challenge) compared to placebo ([2]; normal AVP MDD subjects): limited or no difference of stress response
- Neuroendocrine effects on plasma ACTH, serum cortisol, urine cortisol and total glucocorticoids, high AVP v normal AVP subjects (HPA axis activity [3]; MDD subjects, comparison of the two AVP groups): did not differ
- Reduction of urine glucocorticoids compared to placebo (HPA axis activity [3]; higher urine glucocorticoids MDD subjects (≧3.44 mg per mg creatinine at baseline)): larger reductions of urine glucocorticoids
- Reduction of urine glucocorticoids compared to placebo (HPA axis activity [3]; lower urine glucocorticoids MDD subjects): limited or no difference of reduction of urine glucocorticoids
- Relationship of baseline urine glucocorticoids and reduction of urine glucocorticoids compared to placebo (HPA axis activity [4]): The same relationship has been observed
- ANCOVA factor for treatment on MASQ AD, AA and GDA subscales (subjects with MDD [5]; [6]): not
- False Negative (subjects with MDD [5]; [9]): 3
- True Positive (subjects with MDD [5]; [9]): 28
- Interaction of urine glucocorticoids divided by creatinine (higher v lower) and treatment, MASQ GDM, GDD, GDA, AA and 17- and 7-item HAM-D (subjects with MDD [5]; higher ≧3.44 mg per mg creatinine, 24-hour collection): numerically favorable trends
- Interaction of urine glucocorticoids divided by creatinine (higher v lower) and treatment, MASQ and HAM-D scores on Day 7 (subjects with MDD [5]; higher ≧3.44 mg per mg creatinine, 24-hour collection, all dependent variables): not statistically significant
- Symptom changes on MASQ and HAM-D (subjects with MDD [5]; subset of subjects distinguished by AVP, copeptin and rs7088418/rs17169521 genotypes): more favorable symptom changes
- Symptom changes on MASQ and HAM-D (subjects with MDD [5]; subset of subjects distinguished by NR3C1 genotypes (rs10482672; similar for rs17100236)): unfavorable symptom changes
